Assay results reported in patent US20200345021A1, “METHOD AND SYSTEM FOR ENHANCING THE EFFICACY USING IONIZED/A[…] PEROXIDE IN REDUCING MICROBIAL POPULATIONS, METHOD OF USE THEREOF” (priority 2019, published 2020).
Values joined by “and” are separate entries in the source; they are usually repeats but may differ in a detail not shown here. Equal entries are not always repeated. Where two headings read alike, the source gives them in different places. Marks after values point to notes of the source that are not given here.

Tests used:
yeast and mold = conditions: for Yeast and mold count: not inoculated
Method: (§1) The untreated (control) and treated samples were placed separately in a Stomacher bag with 20˜100 ml of neutralizing buffer and pummeled at 260 rpm for 2 mm using Stomacher (Interscience Laboratories Inc.). Decimal dilutions of the samples were made with 0.1% peptone (Difco) and aliquots (0.1 or 1 ml) were spread plated in duplicate onto TSA with incubation at 37° C. for 24 h for the enumeration of total aerobic plate count (APC), and onto Dichloran Rose Bengal Chlortetracycline (DRBC, Difco) agar with incubation at 25° C. for 5 days for enumeration of yeast and mold. DRBC plates were wrapped with aluminum foil to […]. Experiments were conducted independently 8 times. Colonies were counted and reported as log CFU/piece.
(§2) Produce items were placed onto a sterile test tube tack with inoculated area facing up. […] The distance and voltage between the two electrodes were 9 mm and 17 kV, respectively. […] After 45 s treatment, the chamber was sealed for 30 mins (dwell time) before removal of the fresh produce items. Experiment; were repeated three times.

[1] = system: total aerobic plate count (APC), native microorganisms; conditions: for Total plate count: not inoculated
Method: as §1, §2

Salmonella Typhimurium = format: cell-based; conditions: for Reductions of Salmonella, range over the fresh produce items: all tested produce items and surfaces, optimized conditions
Source text: (§3) To minimize the risk of possible bacteria becoming airborne during treatments, attenuated and non-pathogenic bacteria were used in the study. Two strains of non-pathogenic S. Typhimurium (ATCC 53647 and 53648) and three strains of L. innocua (ATCC 33090, ATCC 51742 and ATCC BAA680) were obtained from American Type Culture Collection (ATCC) (Manassas, Va., USA). Further studies used E. coli O157:H7 (ATCC 700728), S. Typhimurium (ATCC 53647 and 53648), and L. innocua (ATCC 33090) obtained from American Type Culture Collection (ATCC) (Manassas, Va., USA) and maintained as a part of the culture collection at the USDA Eastern Regional Research Center (Wyndmoor, Pa. USA). The bacteria were made to be resistant to nalidixic acid by successive growth in Trypic Soy Broth (TSB) (Difco, Sparks, Md., USA) with increasing nalidixic acid concentrations. All strains were stored at −80° C. in 1 mL of TSB containing 10% glycerol. Working cultures of S. Typhimurium and L. innocua were maintained in 9 mL TSB (supplemented with 100 μg/mL nalidixic acid for S. Typhimurium) at 4° C. after incubating at 37° C. for […], respectively, and sub-cultured each time.
(§4) Each strain of S. Typhimurium and L. innocua was cultured in 9 mL TSB (supplemented with 100 μg/mL nalidixic acid for S. Typhimurium) and incubated at 37° C. for 40 h and 48 h, respectively, harvested by centrifugation at 4000×g for 10 min at 4° C., and resuspended in 9 mL sterile Buffered Peptone Water (BPW; Difco). The pellets were resuspended in BPW to form cell suspensions with a final concentration of 108˜10^9 CFU/mL. Subsequently, suspended pellets of two strains of Salmonella and three strains of L. innocua were combined to obtain two separate culture cocktails.
(§5) Grape tomatoes, granny smith apples, romaine lettuce and cantaloupes were purchased from local markets (Philadelphia, Pa., USA) and kept at 10° C. prior to use. Fruits and vegetables were removed from 10° C. refrigeration and equilibrated to ambient temperature before being inoculated. Romaine lettuce was divided into upper green leaf and midrib tissues. Six tomatoes, six pieces (2×2 cm) of apple skins, five pieces (3×3 cm) of Romaine lettuce upper leaves, five pieces (3 cm length) of Romaine lettuce midrib area and six pieces (2×2 cm) of cantaloupe rinds with 2×3 mm thickness of flesh were used for each treatment per replicate. Bach piece w as spot inoculated with 10 μL of Salmonella and L. innocua by depositing droplets with a micropipette. The inoculated samples were dried in a bio-hood for 1 h (for tomato surfaces, romaine lettuce, apple skins and cantaloupe rinds) or 2 h (for tomato stem scars) at ambient temperature.
(§6) Produce items were placed onto a sterile test tube rack with the inoculated area facing up and the rack with produce pieces were placed inside of a treatment chamber (12×12×24 inch).
(§7) Therefore, each kind of produce was treated with and without cold plasma ionized under the same optimized conditions.
(§8) After each treatment, the tomato stem scars and surfaces with the inoculated bacteria were removed using a pair of sterile scissors. Each type of produce item from the same treatment was combined (total weight: 1.51±0.29 g for tomato stem scars; 2.07±0.15 g for tomato surfaces; 6.37±0.92 g for apple skins; 1.62±0.34 g for Romaine lettuce upper leaves: 13.30±2.97 g for Romaine lettuce midrib tissues: 9.58±1.26 g for cantaloupe rinds) and transferred into an 80 mL filtered stomacher bag. After addition of 30 mL BBL buffered peptone water into the bag, the sample in the bag was homogenized using a mini blender (Mini Mix CC, Interscience laboratories Inc., Woburn, Mass., USA) for 2 min at a setting of 4. […] Tryptic Soy Agar with 200 μg/mL pyruvate acid and 100 μg/mL nalidixic acid (TSA-PN) and PALCAM Agars (Difco) were used for the enumeration of S. Typhimurium and L. innocua, respectively.

L. innocua = conditions: 45 s treatment + 30 min dwell
Listeria innocua = assay: Effect of cold plasma activation on efficacy of ionized/aerosolized H2O2 against Listeria innocua (Study 2); format: cell-based; conditions: for Reductions of Listeria on all types and surfaces of fresh produce except the tomato stem scar area: optimized conditions
Source text: as §3, §4, §5, §6, §7, §8

[2] = Cantaloupe rind, 30 s spray time + 30 min dwell, listed as H2O2 + cold plasma
[3] = Romaine lettuce-midrib, 30 s spray time + 30 min dwell, listed as H2O2 + cold plasma
[4] = Romaine lettuce-upper leaf, 30 s spray time + 30 min dwell, listed as H2O2 + cold plasma
[5] = Tomato-stem scar, three cycles of 20 s spray time plus 20 min dwell time, listed as H2O2 + cold plasma
[6] = Tomato-surface, 8 s spray time + 30 min dwell, listed as H2O2 + cold plasma
[7] = listed as hydrogen peroxide (H2O2) with cold plasma

OO [H2O2, hydrogen peroxide]
Yeast and mold count (yeast and mold; cantaloupe): 4.7 +/− 0.9a Log CFU/piece
Reduction of yeast and mold count (yeast and mold; spinach): 2.2 log
Yeast and mold count (yeast and mold; spinach): 4.2 +/− 2.0b Log CFU/piece
Reduction of yeast and mold count (yeast and mold; tomato): 3.9 log
Yeast and mold count (yeast and mold; tomato): 2.2 +/− 1.5b Log CFU/piece
Total plate count ([1]; cantaloupe): 4.6 +/− 1.2a Log CFU/piece
Reduction in APC ([1]; spinach leaves): 1.3 log
Total plate count ([1]; spinach): 4.7 +/− 1.3b Log CFU/piece
Total plate count ([1]; tomato): 5.4 +/− 0.5b Log CFU/piece
Reduction in APC ([1]; tomatoes): 0.5 log
Reduction of E. coli populations (E. coli O157:H7): 1.5 log
Reduction of Salmonella (S. Typhimurium): 4.2 log CFU/leaf
Populations of Salmonella Typhimurium (Salmonella Typhimurium; [2]): 3.76 ± 0.53^c log CFU/piece
Reductions of Salmonella Typhimurium (Salmonella Typhimurium; [2]): 2.61 ± 0.53^x log CFU/piece
Reductions of Salmonella Typhimurium (Salmonella Typhimurium; Granny Smith apples, 8 s spray time + 30 min dwell, listed as H2O2 + cold plasma): 5.50 ± 0.19^x log CFU/piece
Reductions of Salmonella Typhimurium (Salmonella Typhimurium; Granny Smith apples, 8 s spray time + 30 min dwell, listed as iHP): > 5 log CFU/piece
Populations of Salmonella Typhimurium (Salmonella Typhimurium; [3]): 2.54 ± 0.32^c log CFU/piece
Reductions of Salmonella Typhimurium (Salmonella Typhimurium; [3]): 3.40 ± 0.32^x log CFU/piece
Populations of Salmonella Typhimurium (Salmonella Typhimurium; [4]): 3.54 ± 0.11^c log CFU/piece
Reductions of Salmonella Typhimurium (Salmonella Typhimurium; [4]): 2.88 ± 0.11^x log CFU/piece
Populations of Salmonella Typhimurium (Salmonella Typhimurium; [5]): 3.60 ± 0.70^c log CFU/piece
Reductions of Salmonella Typhimurium (Salmonella Typhimurium; [5]): 2.35 ± 0.30^x log CFU/piece
Reductions of Salmonella Typhimurium (Salmonella Typhimurium; [6]): 5.28 ± 0.49^x log CFU/piece
Reductions of Salmonella Typhimurium (Salmonella Typhimurium; Tomato-surface, 8 s spray time + 30 min dwell, listed as iHP): > 5 log CFU/piece
Reductions of Salmonella, range over the fresh produce items (Salmonella Typhimurium; [7]): 2.35-5.50 log CFU/piece
Reductions of Salmonella, range over the fresh produce items (Salmonella Typhimurium; listed as iHP): 2.35-5.50 log CFU/piece
Populations of L. innocua (L. innocua; cantaloupe): 3.5 +/− 0.2b log CFU/piece
Reduction of L. innocua (L. innocua; cantaloupe): 3.0 log CFU/piece
Populations of L. innocua (L. innocua; spinach): 2.5 +/− 1.9b log CFU/piece
Reduction of L. innocua (L. innocua; surface of spinach leaves): 4.0 log CFU/leaf
Reduction of L. innocua (L. innocua; tomato stem scar area, listed as ionized/aerosolized hydrogen peroxide (H2O2)): 1.0-1.3 log CFU/piece and 1.3 log CFU/piece
Populations of L. innocua (L. innocua; tomato stem scar): 4.9 +/− 0.4b log CFU/piece
Listeria reductions for cantaloupes and two locations on lettuces (Listeria innocua): 2.61 to 3.40 log CFU/piece
Populations of Listeria innocua (Listeria innocua; Cantaloupe rind, 30 s spray time + 30 min dwell, ND1: not detectable (detection limit 0.70 log CFU/piece), listed as H2O2 + cold plasma): ND1^c
Reductions of Listeria innocua (Listeria innocua; [2]): 5.10 ± 0.30^x log CFU/piece
Populations of Listeria innocua (Listeria innocua; Granny Smith apple, 8 s spray time + 30 min dwell, ND1: not detectable (detection limit 0.70 log CFU/piece), listed as H2O2 + cold plasma): ND1^c
Reductions of Listeria innocua (Listeria innocua; Granny Smith apple, 8 s spray time + 30 min dwell, listed as H2O2 + cold plasma): 5.24 ± 0.22^x log CFU/piece
Populations of Listeria innocua (Listeria innocua; Romaine lettuce-midrib, 30 s spray time + 30 min dwell, ND2: not detectable (detection limit 0.76 log CFU/piece), listed as H2O2 + cold plasma): ND2^c
Reductions of Listeria innocua (Listeria innocua; [3]): 5.21 ± 0.11^x log CFU/piece
Populations of Listeria innocua (Listeria innocua; Romaine lettuce-upper leaf, 30 s spray time + 30 min dwell, ND2: not detectable (detection limit 0.76 log CFU/piece), listed as H2O2 + cold plasma): ND2^c
Reductions of Listeria innocua (Listeria innocua; [4]): 5.19 ± 0.08^x log CFU/piece
Populations of Listeria innocua (Listeria innocua; [5]): 2.94 ± 0.89^c log CFU/piece
Reductions of Listeria innocua (Listeria innocua; [5]): 2.62 ± 0.89^x log CFU/piece
Reductions of Listeria innocua (Listeria innocua; Tomato-stem scar, three cycles of 20 s spray time plus 20 min dwell time, listed as iHP): 2.36 log CFU/piece
Populations of Listeria innocua (Listeria innocua; Tomato-surface, 8 s spray time + 30 min dwell, ND1: not detectable (detection limit 0.70 log CFU/piece), listed as H2O2 + cold plasma): ND1^c
Reductions of Listeria innocua (Listeria innocua; [6]): 5.16 ± 0.20^x log CFU/piece
Reductions of Listeria on all types and surfaces of fresh produce except the tomato stem scar area (Listeria innocua; listed as cold plasma-activated hydrogen peroxide (H2O2)): > 5 log CFU/piece
Reductions of Listeria on all types and surfaces of fresh produce except the tomato stem scar area (Listeria innocua; [7]): more than 5 log CFU/piece
Reductions of Listeria on all types and surfaces of fresh produce except the tomato stem scar area (Listeria innocua; listed as iHP): more than 5 log CFU/piece
